US6706663B2, “Herbicidal 3-heterocyclic substituted benzisothiazole and benzisoxazole compounds” (Wyeth, priority 2000, dated 2004)

Experiments:
[1] = system: ECHCG (Echinochloa crus-galli); assay: Postemergence herbicidal evaluation; type: in vivo, (L.) Beau
How it was run: (§1)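 Seedlings grown about two weeks in flats, sprayed, then kept under standard greenhouse care. Rated visually 4–5 weeks after treatment on a 0–9 scale (stand, vigour, malformation, size, chlorosis, overall appearance) relative to untreated control; repeat tests averaged.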

SETVI (Setaria viridis) = assay: Postemergence herbicidal evaluation; type: in vivo, (L.) Beau
How it was run: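 Postemergence foliar spray on two-week-old seedlings, dose equivalent to about 0.0040 to 1.000 kg/ha. Ratings use a 0-9 visual scale relative to control at four to five weeks.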

[2] = system: TRZAWR (Wheat, Winter, cv Riband); assay: Postemergence herbicidal evaluation; type: in vivo, Triticum aestivum
How it was run: as §1

[3] = system: ABUTH (Abutilon theophrasti); assay: Preemergence herbicidal evaluation; type: in vivo, Medic.; details: preemergence, rated 4-5 weeks after treatment
[4] = system: AMBEL (Ambrosia artemisifolia); assay: Preemergence herbicidal evaluation; type: in vivo, L.; details: preemergence, rated 4-5 weeks after treatment
How it was run: (§2)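 Scores (0–9) reflect visual comparison with control plants for stand, vigor, malformation, size and chlorosis. Seeds in potting soil received a post-planting spray of compound in aqueous acetone and grew in a greenhouse until assessment 4–5 weeks later.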

[5] = system: CASOB (Cassia obtusifolia); assay: Preemergence herbicidal evaluation; type: in vivo, L.; details: preemergence, rated 4-5 weeks after treatment
How it was run: as §2

[6] = system: CHEAL (Chenopodium album); assay: Preemergence herbicidal evaluation; type: in vivo, L.; details: preemergence, rated 4-5 weeks after treatment
How it was run: as §2

[7] = system: IPOHE (Ipomoea hederacea); assay: Preemergence herbicidal evaluation; type: in vivo, (L.) Jacq.; details: preemergence, rated 4-5 weeks after treatment
[8] = system: GLXMAW (Soybean, Williams); assay: Preemergence herbicidal evaluation; type: in vivo, Glycine max, (L.) Merr. cv Williams; details: preemergence, rated 4-5 weeks after treatment
ZEAMX (Corn, Field) = assay: Preemergence herbicidal evaluation; type: in vivo, Zea mays, L.; details: preemergence, rated 4-5 weeks after treatment
[9] = system: ECHORC (Echinochloa oryzoides); assay: Flooded paddy, preemergence weed control; type: in vivo, Echinochloa oryzoides (Ard.) Fritsch.; details: rated 3-4 weeks after treatment, 0-9 rating scale
How it was run: (§3)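 Seeds or propagating organs were sown in the top 0.5 cm of silt loam soil, flooded, and the water kept 1.5 to 3 cm above the soil surface throughout. Plants were grown in the greenhouse and rated visually on a 0-9 scale against a control.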

CYPIR (Cyperus iria) = assay: Flooded paddy, preemergence weed control; type: in vivo; details: rated 3-4 weeks after treatment, 0-9 rating scale
How it was run: as §3

[10] = system: CYPSE (Cyperus serotinus); assay: Flooded paddy, preemergence weed control; type: in vivo, Rottb.; details: rated 3-4 weeks after treatment, 0-9 rating scale
How it was run: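 Seeds or propagules were planted 0.5 cm deep in silt loam and flooded to 1.5–3 cm. Compounds in 50/50 v/v aqueous/acetone were pipetted into the flood water at about 0.0080 to 0.1250 kg/ha. After 3–4 weeks in the greenhouse, effect was rated visually on a 0–9 scale versus untreated control.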

[11] = system: MOOVA (Monochoria vaginalis); assay: Flooded paddy, preemergence weed control; type: in vivo, Presl.; details: rated 3-4 weeks after treatment, 0-9 rating scale
How it was run: as §3

[12] = system: SAGPY (Sagittaria pygmaea); assay: Flooded paddy, preemergence weed control; type: in vivo, L.; details: rated 3-4 weeks after treatment, 0-9 rating scale
How it was run: as §3

ORYSAT (Rice, Tebonnet) = assay: Flooded paddy, post-transplant rice tolerance; type: in vivo, Oryza sativa, (L.) Tebonnet; details: flooded paddy, post-transplant rice, rated 3-4 weeks after treatment, 0-9 rating scale
How it was run: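 Scores (0-9) reflect visual injury relative to untreated plants in flooded silt loam. Each pot held two transplanted ten-day-old seedlings under 1.5 to 3 cm standing water in the greenhouse.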

For Cc1cccnc1-c1nsc2ccc(-n3c(=O)cc(C(F)(F)F)n(C)c3=O)cc12 [Compound 19, 1-methyl-3-[3-(3-methyl-2-pyridyl)-1,2-benzisothiazol-5-yl]-6-(trifluoromethyl)uracil], the “Postemergence herbicidal rating, ECHCG” value ([1]; rate 0.0320 kg/ha) was 2.0, the “Postemergence herbicidal rating, ECHCG” value ([1]; rate 0.0620 kg/ha) was 3.0 and the “Postemergence herbicidal rating, SETVI” value (SETVI (Setaria viridis); rate 0.0320 kg/ha) was 4.0. For the same compound, the “Postemergence herbicidal rating, SETVI” value (SETVI (Setaria viridis); rate 0.0620 kg/ha) was 6.5, the “Postemergence herbicidal rating, TRZAWR” value ([2]; rate 0.0320 kg/ha) was 4.0 and the “Postemergence herbicidal rating, TRZAWR” value ([2]; rate 0.0620 kg/ha) was 4.3. For the same compound, the “ABUTH preemergence herbicidal rating” value ([3]; Rate 0.0620 kg/ha) was 7.7, the “ABUTH preemergence herbicidal rating” value ([3]; Rate 0.1250 kg/ha) was 9.0 and the “ABUTH preemergence herbicidal rating” value ([3]; Rate 0.2500 kg/ha) was 9.0. The “AMBEL preemergence herbicidal rating” value ([4]; Rate 0.0620 kg/ha) was 6.7, the “AMBEL preemergence herbicidal rating” value ([4]; Rate 0.1250 kg/ha) was 9.0 and the “AMBEL preemergence herbicidal rating” value ([4]; Rate 0.2500 kg/ha) was 9.0. For the same compound, the “CASOB preemergence herbicidal rating” value ([5]; Rate 0.0620 kg/ha) was 4.7, the “CASOB preemergence herbicidal rating” value ([5]; Rate 0.1250 kg/ha) was 5.7 and the “CASOB preemergence herbicidal rating” value ([5]; Rate 0.2500 kg/ha) was 8.3. For the same compound, the “CHEAL preemergence herbicidal rating” value ([6]; Rate 0.0620 kg/ha) was 9.0, the “CHEAL preemergence herbicidal rating” value ([6]; Rate 0.1250 kg/ha) was 9.0 and the “CHEAL preemergence herbicidal rating” value ([6]; Rate 0.2500 kg/ha) was 9.0. The “IPOHE preemergence herbicidal rating” value ([7]; Rate 0.0620 kg/ha) was 9.0, the “IPOHE preemergence herbicidal rating” value ([7]; Rate 0.1250 kg/ha) was 8.7 and the “IPOHE preemergence herbicidal rating” value ([7]; Rate 0.2500 kg/ha) was 9.0. The “GLXMAW preemergence herbicidal rating” value ([8]; Rate 0.0620 kg/ha) was 6.3, the “GLXMAW preemergence herbicidal rating” value ([8]; Rate 0.1250 kg/ha) was 6.7 and the “GLXMAW preemergence herbicidal rating” value ([8]; Rate 0.2500 kg/ha) was 7.7. The “ZEAMX preemergence herbicidal rating” value (ZEAMX (Corn, Field); Rate 0.0620 kg/ha) was 7.0, the “ZEAMX preemergence herbicidal rating” value (ZEAMX (Corn, Field); Rate 0.1250 kg/ha) was 7.0 and the “ZEAMX preemergence herbicidal rating” value (ZEAMX (Corn, Field); Rate 0.2500 kg/ha) was 7.7. For the same compound, the “herbicidal rating, ECHORC” value ([9]; rate 0.0080 kg/ha) was 2.0, the “herbicidal rating, ECHORC” value ([9]; rate 0.0320 kg/ha) was 8.0 and the “herbicidal rating, ECHORC” value ([9]; rate 0.1250 kg/ha) was 9.0. For the same compound, the “herbicidal rating, CYPIR” value (CYPIR (Cyperus iria); rate 0.0080 kg/ha) was 0.0, the “herbicidal rating, CYPIR” value (CYPIR (Cyperus iria); rate 0.0320 kg/ha) was 5.0 and the “herbicidal rating, CYPIR” value (CYPIR (Cyperus iria); rate 0.1250 kg/ha) was 9.0. For the same compound, the “herbicidal rating, CYPSE” value ([10]; rate 0.0080 kg/ha) was 0.0, the “herbicidal rating, CYPSE” value ([10]; rate 0.0320 kg/ha) was 0.0 and the “herbicidal rating, CYPSE” value ([10]; rate 0.1250 kg/ha) was 6.5. For the same compound, the “herbicidal rating, MOOVA” value ([11]; rate 0.0080 kg/ha) was 4.0, the “herbicidal rating, MOOVA” value ([11]; rate 0.0320 kg/ha) was 9.0 and the “herbicidal rating, MOOVA” value ([11]; rate 0.1250 kg/ha) was 9.0. For the same compound, the “herbicidal rating, SAGPY” value ([12]; rate 0.0080 kg/ha) was 0.0, the “herbicidal rating, SAGPY” value ([12]; rate 0.0320 kg/ha) was 2.5 and the “herbicidal rating, SAGPY” value ([12]; rate 0.1250 kg/ha) was 7.0. For the same compound, the “herbicidal rating, ORYSAT (rice tolerance)” value (“herbicidal rating, ORYSAT” for short) (ORYSAT (Rice, Tebonnet); rate 0.0080 kg/ha) was 2.0, the “herbicidal rating, ORYSAT” value (ORYSAT (Rice, Tebonnet); rate 0.0320 kg/ha) was 6.5 and the “herbicidal rating, ORYSAT” value (ORYSAT (Rice, Tebonnet); rate 0.1250 kg/ha) was 8.0.
In the case of Cc1ccc(-c2nsc3ccc(-n4c(=O)cc(C(F)(F)F)n(C)c4=O)cc23)s1 [Compound 21, 1-methyl-3-[3-(5-methyl-2-thienyl)-1,2-benzisothiazol-5-yl]-6-(trifluoromethyl)uracil], the “Postemergence herbicidal rating, ECHCG” value ([1]; rate 0.0320 kg/ha) is reported as 4.0, the “Postemergence herbicidal rating, ECHCG” value ([1]; rate 0.0620 kg/ha) is reported as 4.0 and the “Postemergence herbicidal rating, ECHCG” value ([1]; rate 0.1250 kg/ha) is reported as 4.0. The “Postemergence herbicidal rating, SETVI” value (SETVI (Setaria viridis); rate 0.0320 kg/ha) was 2.0, the “Postemergence herbicidal rating, SETVI” value (SETVI (Setaria viridis); rate 0.0620 kg/ha) was 7.0 and the “Postemergence herbicidal rating, SETVI” value (SETVI (Setaria viridis); rate 0.1250 kg/ha) was 9.0. For the same compound, the “Postemergence herbicidal rating, TRZAWR” value ([2]; rate 0.0320 kg/ha) was 4.0, the “Postemergence herbicidal rating, TRZAWR” value ([2]; rate 0.0620 kg/ha) was 4.5 and the “Postemergence herbicidal rating, TRZAWR” value ([2]; rate 0.1250 kg/ha) was 4.5. For the same compound, the “ABUTH preemergence herbicidal rating” value ([3]; Rate 0.0620 kg/ha) was 4.0, the “ABUTH preemergence herbicidal rating” value ([3]; Rate 0.1250 kg/ha) was 7.5 and the “ABUTH preemergence herbicidal rating” value ([3]; Rate 0.2500 kg/ha) was 9.0. For the same compound, the “AMBEL preemergence herbicidal rating” value ([4]; Rate 0.0620 kg/ha) was 2.0, the “AMBEL preemergence herbicidal rating” value ([4]; Rate 0.1250 kg/ha) was 5.5 and the “AMBEL preemergence herbicidal rating” value ([4]; Rate 0.2500 kg/ha) was 7.5. For the same compound, the “CASOB preemergence herbicidal rating” value ([5]; Rate 0.0620 kg/ha) was 0.0, the “CASOB preemergence herbicidal rating” value ([5]; Rate 0.1250 kg/ha) was 0.5 and the “CASOB preemergence herbicidal rating” value ([5]; Rate 0.2500 kg/ha) was 2.0. The “CHEAL preemergence herbicidal rating” value ([6]; Rate 0.0620 kg/ha) was 9.0, the “CHEAL preemergence herbicidal rating” value ([6]; Rate 0.1250 kg/ha) was 9.0 and the “CHEAL preemergence herbicidal rating” value ([6]; Rate 0.2500 kg/ha) was 9.0. For the same compound, the “IPOHE preemergence herbicidal rating” value ([7]; Rate 0.0620 kg/ha) was 0.0, the “IPOHE preemergence herbicidal rating” value ([7]; Rate 0.1250 kg/ha) was 2.0 and the “IPOHE preemergence herbicidal rating” value ([7]; Rate 0.2500 kg/ha) was 5.0. For the same compound, the “GLXMAW preemergence herbicidal rating” value ([8]; Rate 0.0620 kg/ha) was 0.0, the “GLXMAW preemergence herbicidal rating” value ([8]; Rate 0.1250 kg/ha) was 0.0 and the “GLXMAW preemergence herbicidal rating” value ([8]; Rate 0.2500 kg/ha) was 2.0. For the same compound, the “ZEAMX preemergence herbicidal rating” value (ZEAMX (Corn, Field); Rate 0.0620 kg/ha) was 1.0, the “ZEAMX preemergence herbicidal rating” value (ZEAMX (Corn, Field); Rate 0.1250 kg/ha) was 3.5 and the “ZEAMX preemergence herbicidal rating” value (ZEAMX (Corn, Field); Rate 0.2500 kg/ha) was 4.5. For the same compound, the “herbicidal rating, ECHORC” value ([9]; rate 0.0080 kg/ha) was 4.0, the “herbicidal rating, ECHORC” value ([9]; rate 0.0320 kg/ha) was 8.5 and the “herbicidal rating, ECHORC” value ([9]; rate 0.1250 kg/ha) was 9.0. The “herbicidal rating, CYPIR” value (CYPIR (Cyperus iria); rate 0.0080 kg/ha) was 4.0, the “herbicidal rating, CYPIR” value (CYPIR (Cyperus iria); rate 0.0320 kg/ha) was 9.0 and the “herbicidal rating, CYPIR” value (CYPIR (Cyperus iria); rate 0.1250 kg/ha) was 9.0. For the same compound, the “herbicidal rating, CYPSE” value ([10]; rate 0.0080 kg/ha) was 0.0, the “herbicidal rating, CYPSE” value ([10]; rate 0.0320 kg/ha) was 4.5 and the “herbicidal rating, CYPSE” value ([10]; rate 0.1250 kg/ha) was 4.5. The “herbicidal rating, MOOVA” value ([11]; rate 0.0080 kg/ha) was 7.0, the “herbicidal rating, MOOVA” value ([11]; rate 0.0320 kg/ha) was 9.0 and the “herbicidal rating, MOOVA” value ([11]; rate 0.1250 kg/ha) was 9.0. For the same compound, the “herbicidal rating, SAGPY” value ([12]; rate 0.0080 kg/ha) was 0.0, the “herbicidal rating, SAGPY” value ([12]; rate 0.0320 kg/ha) was 0.0 and the “herbicidal rating, SAGPY” value ([12]; rate 0.1250 kg/ha) was 6.0. The “herbicidal rating, ORYSAT” value (ORYSAT (Rice, Tebonnet); rate 0.0080 kg/ha) was 0.0, the “herbicidal rating, ORYSAT” value (ORYSAT (Rice, Tebonnet); rate 0.0320 kg/ha) was 2.0 and the “herbicidal rating, ORYSAT” value (ORYSAT (Rice, Tebonnet); rate 0.1250 kg/ha) was 3.0.
